Source: patent US20100015141A1, “4-PHENOXY-6-ARYL-1H-PYRAZOLO[3,4-D]PYRIMIDINE AND N-ARYL-6-ARYL-1H-PYRAZOLO[3,4-D]PYRIMIDIN-4-AMINE COMPOUNDS, THEIR USE AS MTOR KINASE AND PI3 KINASE INHIBITORS, AND THEIR SYNTHESES” (Wyeth, priority 2008, published 2010)
Where two headings read alike, the source gives them in different places.

Assays:
PI3K-α = PI3K-α (Homo sapiens, UniProt P42336); test: PI3K-alpha fluorescence polarization assay; assay type: biochemical; details: 20 μM PIP2, 25 μM ATP
Protocol: (§1) The reaction buffer was 20 mM HEPES pH7.5, 2 mM MgCl2, 0.05% CHAPS, and 0.01% βME (added fresh). The substrate solution was 40 μM PIP2 (diC8, Echelon, Salt Lake City Utah cat #P-4508, 1 mM in water) and 50 μM ATP in the reaction buffer. Nunc 384-well black polypropylene fluorescent plates were used for PI3K assays. The assay is run by putting 9.5 μl of freshly diluted enzyme in the reaction buffer per well, adding 0.5 μl of diluted drug or DMSO, and mixing. Then 10 μl of the substrate solution is added to each well to start the reaction. A final concentration of 20 μM PIP2 and 25 μM ATP in the reaction was used. Reactions were allowed to proceed for 30-60 minutes at room temperature. After 30-60 minutes, 20 μl of a solution of 10 nM TAMRA detector (Red detector probe-Echelon) and 2.5 uM of GST-murineGRP (1.5 mg/ml in 17% glycerol) was added per well to stop the reaction. The resulting solution was mixed well and allowed to stand for 90-110 minutes before reading plate. Assay Plates were read on Perkin-Elmer Envision plate readers with appropriate filters for Tamra [BODIPY-TMRI(1,3,4,5)P4]. Data obtained were used to calculate enzymatic activity and enzyme inhibition by inhibitor compounds. It is important to keep Red probe solutions dark. This procedure is adapted from Echelon Biosciences Inc procedure for their PI3-Kinase fluorescence polarization activity Assay kit Product number K-1100.

PI3K-β = PI3K-β (Homo sapiens, UniProt P42338); test: PI3K fluorescence polarization assay (PI3K-β); assay type: biochemical
Sequence of PI3K-β (P42338 whole entry, species assumed): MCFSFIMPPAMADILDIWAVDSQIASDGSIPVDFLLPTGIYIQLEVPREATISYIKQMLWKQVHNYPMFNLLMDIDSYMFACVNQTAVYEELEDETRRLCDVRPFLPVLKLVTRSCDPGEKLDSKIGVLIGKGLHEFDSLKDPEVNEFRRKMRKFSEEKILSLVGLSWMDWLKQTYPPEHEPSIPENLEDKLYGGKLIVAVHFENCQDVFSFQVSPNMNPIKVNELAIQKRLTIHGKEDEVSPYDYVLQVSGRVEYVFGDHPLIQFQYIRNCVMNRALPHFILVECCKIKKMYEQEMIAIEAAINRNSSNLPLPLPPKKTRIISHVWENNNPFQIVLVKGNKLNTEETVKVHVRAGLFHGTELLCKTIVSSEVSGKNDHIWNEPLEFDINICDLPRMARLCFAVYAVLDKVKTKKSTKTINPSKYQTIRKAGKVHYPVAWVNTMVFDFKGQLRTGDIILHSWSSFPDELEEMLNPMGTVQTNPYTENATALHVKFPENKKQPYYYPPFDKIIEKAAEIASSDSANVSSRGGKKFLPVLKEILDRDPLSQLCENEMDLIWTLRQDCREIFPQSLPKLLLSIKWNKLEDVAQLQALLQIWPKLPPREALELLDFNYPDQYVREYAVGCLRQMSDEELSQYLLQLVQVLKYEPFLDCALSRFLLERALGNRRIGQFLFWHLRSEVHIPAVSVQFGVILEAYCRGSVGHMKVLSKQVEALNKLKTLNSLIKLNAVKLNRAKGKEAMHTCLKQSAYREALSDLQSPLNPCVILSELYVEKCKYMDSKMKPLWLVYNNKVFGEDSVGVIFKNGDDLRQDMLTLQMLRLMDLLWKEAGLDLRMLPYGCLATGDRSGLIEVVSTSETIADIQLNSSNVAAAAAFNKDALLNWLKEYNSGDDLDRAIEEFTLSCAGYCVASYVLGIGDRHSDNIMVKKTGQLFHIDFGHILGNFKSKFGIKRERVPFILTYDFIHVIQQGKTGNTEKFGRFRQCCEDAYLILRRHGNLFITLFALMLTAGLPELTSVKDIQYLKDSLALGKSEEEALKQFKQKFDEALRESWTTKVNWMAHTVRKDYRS
Sequence of PI3K-β (P27986 whole entry partner, species assumed): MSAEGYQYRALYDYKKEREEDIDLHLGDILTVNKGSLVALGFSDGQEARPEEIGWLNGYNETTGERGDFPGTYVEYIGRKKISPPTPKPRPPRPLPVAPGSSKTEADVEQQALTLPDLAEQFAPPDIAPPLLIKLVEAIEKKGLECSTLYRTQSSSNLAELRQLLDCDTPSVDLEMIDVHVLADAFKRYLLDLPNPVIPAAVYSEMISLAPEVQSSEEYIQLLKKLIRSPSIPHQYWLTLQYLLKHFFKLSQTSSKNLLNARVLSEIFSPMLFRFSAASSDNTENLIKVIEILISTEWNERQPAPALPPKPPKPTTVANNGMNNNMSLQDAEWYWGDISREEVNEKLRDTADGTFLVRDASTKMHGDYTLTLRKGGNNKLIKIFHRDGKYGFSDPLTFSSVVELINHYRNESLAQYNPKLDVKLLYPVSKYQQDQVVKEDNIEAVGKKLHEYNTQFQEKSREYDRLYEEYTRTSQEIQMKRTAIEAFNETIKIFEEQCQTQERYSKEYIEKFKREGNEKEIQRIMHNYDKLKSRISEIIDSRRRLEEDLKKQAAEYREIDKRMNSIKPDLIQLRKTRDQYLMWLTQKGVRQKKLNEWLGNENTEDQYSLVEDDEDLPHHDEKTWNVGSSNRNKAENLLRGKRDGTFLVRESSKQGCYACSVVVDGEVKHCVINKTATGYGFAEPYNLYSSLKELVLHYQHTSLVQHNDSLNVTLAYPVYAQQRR
Protocol: as §1

PI3K-γ = PI3K-γ (Homo sapiens, UniProt P48736); test: PI3K-gamma fluorescence polarization assay; assay type: biochemical; details: 20 μM PIP2, 25 μM ATP
Sequence of PI3K-γ (P48736 whole entry, species assumed): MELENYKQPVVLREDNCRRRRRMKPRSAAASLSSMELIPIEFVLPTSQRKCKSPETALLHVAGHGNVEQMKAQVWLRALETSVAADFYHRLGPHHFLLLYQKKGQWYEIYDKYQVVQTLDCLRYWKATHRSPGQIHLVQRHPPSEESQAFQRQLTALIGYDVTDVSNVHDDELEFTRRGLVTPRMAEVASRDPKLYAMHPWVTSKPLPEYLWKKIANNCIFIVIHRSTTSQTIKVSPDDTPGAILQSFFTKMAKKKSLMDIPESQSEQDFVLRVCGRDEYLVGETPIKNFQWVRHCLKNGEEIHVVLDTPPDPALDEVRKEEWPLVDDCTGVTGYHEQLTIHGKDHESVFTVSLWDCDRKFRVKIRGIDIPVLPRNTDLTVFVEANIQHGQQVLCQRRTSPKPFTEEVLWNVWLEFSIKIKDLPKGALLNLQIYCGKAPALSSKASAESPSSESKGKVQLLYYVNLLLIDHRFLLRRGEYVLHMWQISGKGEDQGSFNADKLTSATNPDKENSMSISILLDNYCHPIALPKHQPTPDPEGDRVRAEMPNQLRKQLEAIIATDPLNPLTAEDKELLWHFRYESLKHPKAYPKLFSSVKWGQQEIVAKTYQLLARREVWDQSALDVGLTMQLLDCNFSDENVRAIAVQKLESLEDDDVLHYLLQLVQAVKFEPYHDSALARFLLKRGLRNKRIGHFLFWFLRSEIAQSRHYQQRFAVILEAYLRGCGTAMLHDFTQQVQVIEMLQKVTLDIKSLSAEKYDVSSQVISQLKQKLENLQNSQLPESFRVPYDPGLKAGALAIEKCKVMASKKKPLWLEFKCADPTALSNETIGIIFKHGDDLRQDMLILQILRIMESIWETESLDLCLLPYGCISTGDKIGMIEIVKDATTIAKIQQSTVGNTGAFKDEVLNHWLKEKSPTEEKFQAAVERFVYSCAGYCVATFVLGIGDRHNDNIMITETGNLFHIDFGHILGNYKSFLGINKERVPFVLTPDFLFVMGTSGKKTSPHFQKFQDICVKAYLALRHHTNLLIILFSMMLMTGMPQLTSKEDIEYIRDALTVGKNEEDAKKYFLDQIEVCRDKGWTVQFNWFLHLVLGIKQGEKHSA
Protocol: as §1

PI3K-δ = PI3K-δ (Homo sapiens, UniProt O00329); test: PI3K fluorescence polarization assay (PI3K-δ); assay type: biochemical
Sequence of PI3K-δ (O00329 whole entry, species assumed): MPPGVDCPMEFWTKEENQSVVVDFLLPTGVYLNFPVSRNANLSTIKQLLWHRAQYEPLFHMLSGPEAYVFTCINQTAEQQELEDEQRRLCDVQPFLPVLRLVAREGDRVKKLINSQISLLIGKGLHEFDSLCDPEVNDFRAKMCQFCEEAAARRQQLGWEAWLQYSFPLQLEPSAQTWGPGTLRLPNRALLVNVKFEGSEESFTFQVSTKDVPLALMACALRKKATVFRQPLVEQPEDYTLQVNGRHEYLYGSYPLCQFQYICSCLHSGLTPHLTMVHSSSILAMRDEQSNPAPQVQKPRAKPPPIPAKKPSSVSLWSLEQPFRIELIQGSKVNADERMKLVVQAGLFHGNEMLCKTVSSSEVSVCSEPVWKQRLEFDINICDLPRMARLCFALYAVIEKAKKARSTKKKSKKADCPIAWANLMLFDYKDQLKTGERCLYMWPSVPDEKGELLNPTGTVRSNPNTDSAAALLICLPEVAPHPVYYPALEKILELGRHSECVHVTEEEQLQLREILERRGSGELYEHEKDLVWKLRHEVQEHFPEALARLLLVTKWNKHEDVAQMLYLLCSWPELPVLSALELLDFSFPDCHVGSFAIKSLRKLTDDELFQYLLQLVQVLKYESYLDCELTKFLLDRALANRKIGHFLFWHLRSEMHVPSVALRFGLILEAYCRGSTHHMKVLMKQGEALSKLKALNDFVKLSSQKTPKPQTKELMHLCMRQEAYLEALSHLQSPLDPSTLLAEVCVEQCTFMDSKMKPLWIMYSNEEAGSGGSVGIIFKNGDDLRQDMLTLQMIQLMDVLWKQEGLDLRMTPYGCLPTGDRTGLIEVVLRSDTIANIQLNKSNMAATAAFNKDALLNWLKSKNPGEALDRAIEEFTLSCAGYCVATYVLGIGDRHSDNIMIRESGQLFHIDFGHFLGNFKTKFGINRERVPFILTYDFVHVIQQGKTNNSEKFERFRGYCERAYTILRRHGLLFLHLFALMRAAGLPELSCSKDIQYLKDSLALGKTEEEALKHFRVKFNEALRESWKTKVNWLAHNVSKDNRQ
Sequence of PI3K-δ (P27986 whole entry partner, species assumed): as the sequence (P27986 whole entry partner, species assumed) above
Protocol: as §1

mTOR [1] = target: T1, mTOR (Homo sapiens, UniProt P42345); test: mTOR enzyme assay (DELFIA, His6-S6K phosphorylation); assay type: biochemical; design: FLAG; details: 100 μM ATP, 1.25 μM His6-S6K
human tumor xenografts = details: cited from earlier work
mTOR [2] = target: T1, mTOR; details: read-out: mTOR IC50; mTOR complexes (PI103) / mTOR enzymes (ZSTK474); cited from earlier work

Sequence of PI3K-α (P42336 whole entry, species assumed): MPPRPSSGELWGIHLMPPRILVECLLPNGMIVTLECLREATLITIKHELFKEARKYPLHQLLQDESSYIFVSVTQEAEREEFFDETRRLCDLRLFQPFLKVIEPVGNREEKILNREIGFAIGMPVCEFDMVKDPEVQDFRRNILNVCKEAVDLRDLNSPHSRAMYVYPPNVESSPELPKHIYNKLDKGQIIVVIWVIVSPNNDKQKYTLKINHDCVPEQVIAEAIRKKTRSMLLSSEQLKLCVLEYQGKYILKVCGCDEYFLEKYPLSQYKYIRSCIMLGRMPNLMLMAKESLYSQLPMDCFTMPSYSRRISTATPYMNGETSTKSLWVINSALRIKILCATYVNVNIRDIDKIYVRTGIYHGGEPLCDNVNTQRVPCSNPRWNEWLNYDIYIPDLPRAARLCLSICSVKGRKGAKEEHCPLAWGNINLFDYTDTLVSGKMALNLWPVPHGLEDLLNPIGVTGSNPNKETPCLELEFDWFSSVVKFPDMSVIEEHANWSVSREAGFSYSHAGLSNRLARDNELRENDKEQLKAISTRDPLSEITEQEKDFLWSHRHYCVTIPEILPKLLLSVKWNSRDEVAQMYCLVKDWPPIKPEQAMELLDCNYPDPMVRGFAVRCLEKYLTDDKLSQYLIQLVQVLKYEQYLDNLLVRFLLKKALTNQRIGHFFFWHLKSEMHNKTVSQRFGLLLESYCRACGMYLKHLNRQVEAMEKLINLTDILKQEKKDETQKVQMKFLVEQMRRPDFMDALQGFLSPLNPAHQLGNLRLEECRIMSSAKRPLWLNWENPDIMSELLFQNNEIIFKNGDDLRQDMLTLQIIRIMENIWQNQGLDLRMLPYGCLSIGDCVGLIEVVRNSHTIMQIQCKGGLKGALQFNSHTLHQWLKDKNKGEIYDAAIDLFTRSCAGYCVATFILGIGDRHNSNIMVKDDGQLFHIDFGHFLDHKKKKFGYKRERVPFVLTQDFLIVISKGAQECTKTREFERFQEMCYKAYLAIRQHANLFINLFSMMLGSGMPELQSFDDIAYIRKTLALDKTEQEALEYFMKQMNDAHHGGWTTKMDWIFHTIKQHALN
Sequence of PI3K-α (P27986 whole entry partner, species assumed): as the sequence (P27986 whole entry partner, species assumed) above

Row | SMILES | IC50 (PI3K-α) [nM] | IC50 (PI3K-β) [nM] | IC50 (PI3K-γ) [nM] | IC50 (PI3K-δ) [nM] | IC50 (mTOR [1]) [nM] | activity in human tumor xenograft models (human tumor xenografts; prostrate (PC-3) and glioblastoma (U-87)) | activity in human tumor xenograft models (human tumor xenografts; I.P. dosing in mice, U87MG, PC3, MDA-MB-468, MDA-MB-435, HCT 116, SKOV3, IGROV-1) | tumor growth in mouse human xenograft cancer models (human tumor xenografts; chronic oral administration, 400 mg/kg, A549, PC-3, WiDr) | IC50 (mTOR [2]) [nM]
1 | COc1ccc(Oc2nc(-c3ccc(OC)c(OC)c3)nc3c2cnn3C)cc1OC [Example 46, 4-(3,4-dimethoxyphenoxy)-6-(3,4-dimethoxyphenyl)-1-methyl-1H-pyrazolo[3,4-d]pyrimidine] | 230 | 428 | 203 | 94 | > 20000 |  |  |  | 
2 | COc1cccc(-c2nc(Oc3ccc(NC(C)=O)cc3)c3cnn(C)c3n2)c1 [Example 49, N-(4-{[6-(3-methoxyphenyl)-1-methyl-1H-pyrazolo[3,4-d]pyrimidin-4-yl]oxy}phenyl)acetamide] | 258 | 1040 | 514 | 134 | > 20000 |  |  |  | 
3 | CC(=O)Nc1ccc(Oc2nc(-c3cccc(O)c3)nc3c2cnn3C)cc1 [Example 50, N-(4-{[6-(3-hydroxyphenyl)-1-methyl-1H-pyrazolo[3,4-d]pyrimidin-4-yl]oxy}phenyl)acetamide] | 113 | 213 | 114 | 65 | 2100 |  |  |  | 
4 | Cc1noc(C)c1-c1nc(Nc2ccc(C(N)=O)cc2)c2cnn(C)c2n1 [Example 63, 4-{[6-(3,5-dimethylisoxazol-4-yl)-1-methyl-1H-pyrazolo[3,4-d]pyrimidin-4-yl]amino}benzamide] | 75 | 2150 | 416 | 439 | 2800 |  |  |  | 
5 | Cn1ncc2c(Nc3ccc(C(N)=O)cc3)nc(-c3cccc(Cl)c3)nc21 [Example 64, 4-{[6-(3-chlorophenyl)-1-methyl-1H-pyrazolo[3,4-d]pyrimidin-4-yl]amino}benzamide] | 40 | 1620 | 331 | 170 | 300 |  |  |  | 
6 | CN(C)C1CCN(C(=O)c2ccc(NC(=O)Nc3ccc(Nc4nc(Nc5ccc(C(N)=O)cc5)c5cnn(C)c5n4)cc3)cc2)CC1 [Example 82, 4-({6-[(4-{[(4-{[4-(Dimethylamino)piperidin-1-yl]carbonyl}phenyl)carbamoyl]amino}phenyl)amino]-1-methyl-1H-pyrazolo[3,4-d]pyrimidin-4-yl}amino)benzamide] | 0.2 |  | 5 |  | 7 |  |  |  | 
7 | CN(C)C1CCN(C(=O)c2ccc(NC(=O)Nc3ccc(Nc4nc(Nc5ccc(C(N)=O)cc5)c5cnn(C)c5n4)cc3)cc2)C1 (centres unmarked) [Example 83, 4-({6-[(4-{[(4-{[3-(Dimethylamino)pyrrolidin-1-yl]carbonyl}phenyl)carbamoyl]amino}phenyl)amino]-1-methyl-1H-pyrazolo[3,4-d]pyrimidin-4-yl}amino)benzamide] | 0.3 |  | 7 |  | 5 |  |  |  | 
8 | Cn1ncc2c(Nc3ccc(C(N)=O)cc3)nc(Nc3ccc(NC(=O)Nc4ccc(C(=O)N5CCOCC5)cc4)cc3)nc21 [Example 84, 4-[(1-Methyl-6-{[4-({[4-(morpholin-4-ylcarbonyl)phenyl]carbamoyl}amino)phenyl]amino}-1H-pyrazolo[3,4-d]pyrimidin-4-yl)amino]benzamide] | 0.7 |  | 5 |  | 7 |  |  |  | 
9 | CN(CCO)C(=O)c1ccc(NC(=O)Nc2ccc(Nc3nc(Nc4ccc(C(N)=O)cc4)c4cnn(C)c4n3)cc2)cc1 [Example 85, 4-({[4-({4-[(4-Carbamoylphenyl)amino]-1-methyl-1H-pyrazolo[3,4-d]pyrimidin-6-yl}amino)phenyl]carbamoyl}amino)-N-(2-hydroxyethyl)-N-methylbenzamide] | 0.4 |  | 11 |  | 9 |  |  |  | 
10 | CN(C)CCNC(=O)Nc1ccc(Nc2nc(Nc3ccc(C(N)=O)cc3)c3cnn(C)c3n2)cc1 [Example 86, 4-[(6-{[4-({[2-(Dimethylamino)ethyl]carbamoyl}amino)phenyl]amino}-1-methyl-1H-pyrazolo[3,4-d]pyrimidin-4-yl)amino]benzamide] | 10 |  | 143 |  | 2200 |  |  |  | 
11 | CC(C)N1CCN(C(=O)c2ccc(NC(=O)Nc3ccc(Nc4nc(Nc5ccc(C(N)=O)cc5)c5cnn(C)c5n4)cc3)cc2)CC1 [Example 87, 4-({1-Methyl-6-[(4-{[(4-{[4-(propan-2-yl)piperazin-1-yl]carbonyl}phenyl)carbamoyl]amino}phenyl)amino]-1H-pyrazolo[3,4-d]pyrimidin-4-yl}amino)benzamide] | 0.4 |  | 5 |  | 8 |  |  |  | 
12 | Cn1ncc2c(Nc3ccc(C(N)=O)cc3)nc(Nc3ccc(NC(=O)NC4CC4)cc3)nc21 [Example 88, 4-{[6-({4-[(Cyclopropylcarbamoyl)amino]phenyl}amino)-1-methyl-1H-pyrazolo[3,4-d]pyrimidin-4-yl]amino}benzamide] | 27 |  | 263 |  | 44 |  |  |  | 
13 | CC(C)NC(=O)Nc1ccc(Nc2nc(Nc3ccc(C(N)=O)cc3)c3cnn(C)c3n2)cc1 [Example 89, 4-{[1-Methyl-6-({4-[(propan-2-ylcarbamoyl)amino]phenyl}amino)-1H-pyrazolo[3,4-d]pyrimidin-4-yl]amino}benzamide] | 124 |  | 523 |  | 70 |  |  |  | 
14 | CNC(=O)c1ccc(Nc2nc(Nc3ccc(NC(=O)Nc4cccnc4)cc3)nc3c2cnn3C)cc1 [Example 90, N-Methyl-4-{[1-methyl-6-({4-[(pyridin-3-ylcarbamoyl)amino]phenyl}amino)-1H-pyrazolo[3,4-d]pyrimidin-4-yl]amino}benzamide] | 2.5 |  | 75 |  | 12 |  |  |  | 
15 | CN1CCC(NC(=O)Nc2ccc(Nc3nc(Nc4ccc(C(N)=O)cc4)c4cnn(C)c4n3)cc2)CC1 [Example 91, 4-({1-Methyl-6-[(4-{[(1-methylpiperidin-4-yl)carbamoyl]amino}phenyl)amino]-1H-pyrazolo[3,4-d]pyrimidin-4-yl}amino)benzamide] | 198 |  | 3170 |  | 2000 |  |  |  | 
16 | CN(C)CCN(C)C(=O)c1ccc(NC(=O)Nc2ccc(Nc3nc(Nc4ccc(C(N)=O)cc4)c4cnn(C)c4n3)cc2)cc1 [Example 92, 4-({[4-({4-[(4-Carbamoylphenyl)amino]-1-methyl-1H-pyrazolo[3,4-d]pyrimidin-6-yl}amino)phenyl]carbamoyl}amino)-N-[2-(dimethylamino)ethyl]-N-methylbenzamide] | < 0.3 |  | 6 |  | 9 |  |  |  | 
17 | CN(C)C(=O)c1ccc(Nc2nc(Nc3ccc(NC(=O)Nc4cccnc4)cc3)nc3c2cnn3C)cc1 [Example 93, N,N-Dimethyl-4-{[1-methyl-6-({4-[(pyridin-3-ylcarbamoyl)amino]phenyl}amino)-1H-pyrazolo[3,4-d]pyrimidin-4-yl]amino}benzamide] | 2.1 |  | 75 |  | 12 |  |  |  | 
18 | Cn1ncc2c(Nc3ccc4c(c3)CNC4=O)nc(Nc3ccc(NC(=O)Nc4cccnc4)cc3)nc21 [Example 94, 1-[4-({1-Methyl-4-[(1-oxo-2,3-dihydro-1H-isoindol-5-yl)amino]-1H-pyrazolo[3,4-d]pyrimidin-6-yl}amino)phenyl]-3-pyridin-3-ylurea] | 1.6 |  | 11 |  | 20 |  |  |  | 
19 | CN1Cc2cc(Nc3nc(Nc4ccc(NC(=O)Nc5cccnc5)cc4)nc4c3cnn4C)ccc2C1=O [Example 95, 1-[4-({1-Methyl-4-[(2-methyl-1-oxo-2,3-dihydro-1H-isoindol-5-yl)amino]-1H-pyrazolo[3,4-d]pyrimidin-6-yl}amino)phenyl]-3-pyridin-3-ylurea] | 6 |  | 148 |  | 68 |  |  |  | 
20 | Cn1c(=O)n(-c2ccc(C(C)(C)C#N)cc2)c2c3cc(-c4cnc5ccccc5c4)ccc3ncc21 [NVP-BEZ-235, 2-methyl-2-(4-(3-methyl-2-oxo-8-(quinolin-3-yl)-2,3-dihydro-1H-imidazo[4,5-c]quinolin-1-yl)phenyl)propanenitrile] |  |  |  |  |  | demonstrated activity |  |  | 
21 | Oc1cccc(-c2nc(N3CCOCC3)c3oc4ncccc4c3n2)c1 [PI103, 3-(4-(4-morpholinyl)pyrido[3′,2′:4,5]furo[3,2-d]pyrimidin-2-yl)phenol] |  |  |  |  |  |  | demonstrated activity |  | 
22 | FC(F)c1nc2ccccc2n1-c1nc(N2CCOCC2)nc(N2CCOCC2)n1 [ZSTK474, 2-(2-difluoromethylbenzoimidazol-1-yl)-4,6-dimorpholino-1,3,5-triazine] |  |  |  |  |  |  |  | completely inhibited growth | > 10000
